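Exposure lasted 48 hours, with cells grown in 96-well plates and compounds tested at five concentrations. At the TGI there is no net growth.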
Experiments:
Assay in all cases: inhibition of tumour cell growth, NCI panel, 48 h
PC-3 prostate = system: PC-3 prostate
NCI/ADR-RES ovarian = system: NCI/ADR-RES ovarian
OVCAR-5 ovarian = system: OVCAR-5 ovarian
SW-620 colon = system: SW-620 colon
COLO 205 colon = system: COLO 205 colon
UACC-257 melanoma = system: UACC-257 melanoma
MCF7 breast = system: MCF7 breast
EKVX NSCLC = system: EKVX NSCLC
MDA-N = system: MDA-N
A498 renal = system: A498 renal
MDA-MB-231 breast = system: MDA-MB-231 breast
SNB-75 CNS = system: SNB-75 CNS
UO-31 renal = system: UO-31 renal
SK-MEL-5 melanoma = system: SK-MEL-5 melanoma
SR leukemia = system: SR leukemia
HCT-15 colon = system: HCT-15 colon
OVCAR-8 ovarian = system: OVCAR-8 ovarian
OVCAR-4 ovarian = system: OVCAR-4 ovarian
CAKI-1 renal = system: CAKI-1 renal
TK-10 renal = system: TK-10 renal
HL-60(TB) leukemia = system: HL-60(TB) leukemia
HOP-62 NSCLC = system: HOP-62 NSCLC
MOLT-4 leukemia = system: MOLT-4 leukemia
K-562 leukemia = system: K-562 leukemia
NCI-H522 lung = system: NCI-H522 lung
HT29 colon = system: HT29 colon
T-47D breast = system: T-47D breast
U251 CNS = system: U251 CNS
SK-MEL-2 melanoma = system: SK-MEL-2 melanoma
HS 578T breast = system: HS 578T breast
RPMI-8226 leukemia = system: RPMI-8226 leukemia
SF-268 CNS = system: SF-268 CNS
SNB-19 CNS = system: SNB-19 CNS
CCRF-CEM leukemia = system: CCRF-CEM leukemia
A549 NSCLC = system: A549 NSCLC
SF-295 CNS = system: SF-295 CNS
RXF 393 renal = system: RXF 393 renal
786-0 renal = system: 786-0 renal
MALME-3M melanoma = system: MALME-3M melanoma
SN12C renal = system: SN12C renal
DU-145 prostate = system: DU-145 prostate
SF-539 CNS = system: SF-539 CNS
UACC-62 melanoma = system: UACC-62 melanoma
KM12 colon = system: KM12 colon
HOP-92 NSCLC = system: HOP-92 NSCLC
M14 melanoma = system: M14 melanoma
MDA-MB-435 = system: MDA-MB-435
LOX IMVI melanoma = system: LOX IMVI melanoma
SK-OV-3 ovarian = system: SK-OV-3 ovarian
HCC-2998 colon = system: HCC-2998 colon
ACHN renal = system: ACHN renal
HCT-116 colon = system: HCT-116 colon
NCI-H23 lung = system: NCI-H23 lung
IGROV1 ovarian = system: IGROV1 ovarian
NCI-H226 lung = system: NCI-H226 lung
NCI-H460 lung = system: NCI-H460 lung
OVCAR-3 ovarian = system: OVCAR-3 ovarian
SK-MEL-28 melanoma = system: SK-MEL-28 melanoma

Which results are given for CC1CC(=O)N(N(C)C)C2(C#N)C(=O)N=C(N)C12C#N (centres undefined)?
TGI (PC-3 prostate): > 100 µM; TGI (NCI/ADR-RES ovarian): > 100 µM; TGI (OVCAR-5 ovarian): > 100 µM; TGI (SW-620 colon): > 100 µM; TGI (COLO 205 colon): > 100 µM; TGI (UACC-257 melanoma): > 100 µM; TGI (MCF7 breast): > 100 µM; TGI (EKVX NSCLC): > 100 µM; TGI (MDA-N): > 100 µM; TGI (A498 renal): > 100 µM; TGI (MDA-MB-231 breast): > 100 µM; TGI (SNB-75 CNS): > 100 µM; TGI (UO-31 renal): > 100 µM; TGI (SK-MEL-5 melanoma): > 100 µM; TGI (SR leukemia): > 100 µM; TGI (HCT-15 colon): > 100 µM; TGI (OVCAR-8 ovarian): > 100 µM; TGI (OVCAR-4 ovarian): > 100 µM; TGI (CAKI-1 renal): 48.3 µM; TGI (TK-10 renal): > 100 µM; TGI (HL-60(TB) leukemia): 51.7 µM; TGI (HOP-62 NSCLC): > 100 µM; TGI (MOLT-4 leukemia): > 100 µM; TGI (K-562 leukemia): 59.6 µM; TGI (NCI-H522 lung): > 100 µM; TGI (HT29 colon): > 100 µM; TGI (T-47D breast): > 100 µM; TGI (U251 CNS): > 100 µM; TGI (SK-MEL-2 melanoma): > 100 µM; TGI (HS 578T breast): > 100 µM; TGI (RPMI-8226 leukemia): 99.1 µM; TGI (SF-268 CNS): > 100 µM; TGI (SNB-19 CNS): > 100 µM; TGI (CCRF-CEM leukemia): 67.5 µM; TGI (A549 NSCLC): > 100 µM; TGI (SF-295 CNS): > 100 µM; TGI (RXF 393 renal): > 100 µM; TGI (786-0 renal): > 100 µM; TGI (MALME-3M melanoma): > 100 µM; TGI (SN12C renal): > 100 µM; TGI (DU-145 prostate): > 100 µM; TGI (SF-539 CNS): > 100 µM; TGI (UACC-62 melanoma): > 100 µM; TGI (KM12 colon): > 100 µM; TGI (HOP-92 NSCLC): > 100 µM; TGI (M14 melanoma): > 100 µM; TGI (MDA-MB-435): > 100 µM; TGI (LOX IMVI melanoma): > 100 µM; TGI (SK-OV-3 ovarian): > 100 µM; TGI (HCC-2998 colon): > 100 µM; TGI (ACHN renal): > 100 µM; TGI (HCT-116 colon): > 100 µM; TGI (NCI-H23 lung): > 100 µM; TGI (IGROV1 ovarian): > 100 µM

How did the TGI (PC-3 prostate) turn out when O=C(Nc1ccn(C2CC(O)C(COC(c3ccccc3)(c3ccccc3)c3ccccc3)O2)c(=O)n1)c1ccccc1 (centres undefined) was run?
The TGI was 5.35 µM.

And the TGI (NCI/ADR-RES ovarian)?
Its TGI is 5.25 µM.

What about the TGI (OVCAR-5 ovarian) of the same compound?
Its TGI is 3.53 µM.

What about the TGI (SW-620 colon) of the same compound?
The TGI was 5.46 µM.

And the TGI (COLO 205 colon)?
The TGI was 4.07 µM.

And the TGI (UACC-257 melanoma)?
The TGI was 28.3 µM.

And the TGI (MCF7 breast)?
The TGI was 8.39 µM.

And the TGI (EKVX NSCLC)?
Its TGI is 16.2 µM.

What about the TGI (MDA-N) of the same compound?
Its TGI is 3.99 µM.

What about the TGI (MDA-MB-231 breast) of the same compound?
Its TGI is 7.5 µM.

What about the TGI (SNB-75 CNS) of the same compound?
Its TGI is 9.05 µM.

What about the TGI (UO-31 renal) of the same compound?
The TGI was 18.7 µM.

And the TGI (SK-MEL-5 melanoma)?
The TGI was 4.67 µM.

And the TGI (SR leukemia)?
The TGI was 5.34 µM.

What about the TGI (HCT-15 colon) of the same compound?
Its TGI is 6.4 µM.

What about the TGI (OVCAR-8 ovarian) of the same compound?
The TGI was 3.71 µM.

What about the TGI (OVCAR-4 ovarian) of the same compound?
The TGI was 7.88 µM.

What about the TGI (CAKI-1 renal) of the same compound?
Its TGI is 18.4 µM.

What about the TGI (HL-60(TB) leukemia) of the same compound?
Its TGI is 5.52 µM.

And the TGI (NCI-H226 lung)?
The TGI was 35.4 µM.

What about the TGI (HOP-62 NSCLC) of the same compound?
The TGI was 18.8 µM.

And the TGI (MOLT-4 leukemia)?
Its TGI is 5.1 µM.

And the TGI (K-562 leukemia)?
The TGI was 7.3 µM.

And the TGI (NCI-H522 lung)?
The TGI was 13.4 µM.

What about the TGI (HT29 colon) of the same compound?
The TGI was 3.22 µM.

What about the TGI (T-47D breast) of the same compound?
The TGI was 16.7 µM.

And the TGI (U251 CNS)?
Its TGI is 11.4 µM.

What about the TGI (SK-MEL-2 melanoma) of the same compound?
Its TGI is 7.25 µM.

What about the TGI (HS 578T breast) of the same compound?
Its TGI is 5.91 µM.

What about the TGI (RPMI-8226 leukemia) of the same compound?
Its TGI is 5.2 µM.

What about the TGI (SF-268 CNS) of the same compound?
Its TGI is 20 µM.

What about the TGI (NCI-H460 lung) of the same compound?
The TGI was 4.31 µM.

And the TGI (SNB-19 CNS)?
Its TGI is 14.2 µM.

What about the TGI (OVCAR-3 ovarian) of the same compound?
The TGI was 3.52 µM.

What about the TGI (CCRF-CEM leukemia) of the same compound?
Its TGI is 6.2 µM.

And the TGI (A549 NSCLC)?
Its TGI is 16.7 µM.

And the TGI (SF-295 CNS)?
The TGI was 3.55 µM.

And the TGI (RXF 393 renal)?
Its TGI is 6.99 µM.

And the TGI (786-0 renal)?
Its TGI is 3.51 µM.

What about the TGI (MALME-3M melanoma) of the same compound?
The TGI was 5.89 µM.

And the TGI (SN12C renal)?
The TGI was 3.61 µM.

What about the TGI (DU-145 prostate) of the same compound?
Its TGI is 17.8 µM.

What about the TGI (SK-MEL-28 melanoma) of the same compound?
The TGI was 12.1 µM.

And the TGI (SF-539 CNS)?
The TGI was 8.49 µM.

And the TGI (UACC-62 melanoma)?
The TGI was 20 µM.

What about the TGI (KM12 colon) of the same compound?
The TGI was 17.9 µM.

And the TGI (HOP-92 NSCLC)?
The TGI was 3.59 µM.

What about the TGI (M14 melanoma) of the same compound?
The TGI was 4.57 µM.

What about the TGI (MDA-MB-435) of the same compound?
The TGI was 5.68 µM.

What about the TGI (SK-OV-3 ovarian) of the same compound?
The TGI was 28.3 µM.

And the TGI (HCC-2998 colon)?
Its TGI is 21.6 µM.

And the TGI (ACHN renal)?
The TGI was 9.31 µM.

What about the TGI (HCT-116 colon) of the same compound?
The TGI was 4.29 µM.

What about the TGI (NCI-H23 lung) of the same compound?
The TGI was 3.34 µM.

And the TGI (IGROV1 ovarian)?
Its TGI is 6.12 µM.
